In patent publication US8247211B2, “Glycopeptide antibiotics” (American Cyanamid Company, priority 2001, dated 2012):
Values after ≈ are worked out from the molar mass of the structure shown.

How the values were obtained:
Assay in all cases: In vitro antibacterial evaluation: minimum inhibitory concentration (MIC), broth dilution method
Format in all cases: cell-based
Escherichia coli = tested on: Escherichia coli
Procedure, shortened: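 Using Muller-Hinton II […] and an inoculum of 5×10^5 CFU/mL, antibiotic dilutions from 64 down to 0.06 μg/mL were tested following NCCLS M7-A2. The MIC is the lowest concentration inhibiting growth, including in methicillin-, penicillin- or vancomycin-resistant clinical isolates.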

Streptococcus sp. = tested on: Streptococcus sp.
Procedure, shortened: (§1)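 NCCLS M7-A2 broth dilution; Muller-Hinton II […]; 5×10^5 CFU/mL; 64-0.06 μg/mL. MIC = lowest concentration with no growth.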

Staphylococcus sp. = conditions: for MIC Staphylococcus aureus (ATCC 29213) / MIC Staphylococcus aureus (GC 1131) / MIC Staphylococcus aureus (GC 3051) / MIC Staphylococcus aureus (GC 3053) / MIC Staphylococcus aureus (GC 4541) / MIC Staphylococcus aureus (GC 4542) / MIC Staphylococcus aureus (GC 4544) / MIC Staphylococcus aureus (GC 4545): broth dilution, 18 hours at 35° C.
Procedure, shortened: as §1

Enterococcus sp. = tested on: Enterococcus sp.
Procedure, shortened: as §1

[1] = broth dilution, inoculum 5×10^5 CFU/mL, 18 hours at 35° C.

MIC Escherichia coli (ATCC 25922) (Escherichia coli; strain ATCC 25922): >64 µg/mL
MIC Escherichia coli (GC 4559) (Escherichia coli; strain GC 4559): >64 µg/mL
MIC Escherichi coli (GC 4560) (Escherichia coli; strain GC 4560): >64 µg/mL
MIC Streptococcus agalactiae (GC 4564) (Streptococcus sp.; [1]): 32 µg/mL (≈ 20.9 µM)
MIC Streptococcus pneumoniae (ATCC 6301) (Streptococcus sp.; [1]): 4 µg/mL (≈ 2.61 µM)
MIC Streptococcus pneumoniae (GC 1894) (Streptococcus sp.; [1]): 8 µg/mL (≈ 5.21 µM)
MIC Streptococcus pneumoniae (GC 4565) (Streptococcus sp.; [1]): 8 µg/mL (≈ 5.21 µM)
MIC Streptococcus pyogenes (GC 4563) (Streptococcus sp.; [1]): 64 µg/mL (≈ 41.7 µM)
MIC Streptococcus pneumoniae (ATCC 6301) (Streptococcus sp.; strain ATCC 6301): 4 µg/mL (≈ 2.61 µM)
MIC Streptococcus pneumoniae (GC 1894) (Streptococcus sp.; strain GC 1894): 8 µg/mL (≈ 5.21 µM)
MIC Streptococcus pyogenes (GC 4563) (Streptococcus sp.; strain GC 4563): 64 µg/mL (≈ 41.7 µM)
MIC Streptococcus agalactiae (GC 4564) (Streptococcus sp.; strain GC 4564): 32 µg/mL (≈ 20.9 µM)
MIC Streptococcus pneumoniae (GC 4565) (Streptococcus sp.; strain GC 4565): 8 µg/mL (≈ 5.21 µM)
MIC Staphylococcus aureus (ATCC 29213) (Staphylococcus sp.; 5×10^5 CFU/mL): >64 µg/mL
MIC Staphylococcus aureus (GC 1131) (Staphylococcus sp.; 5×10^5 CFU/mL): >64 µg/mL
MIC Staphylococcus aureus (GC 3051) (Staphylococcus sp.; 5×10^5 CFU/mL): >64 µg/mL
MIC Staphylococcus aureus (GC 3053) (Staphylococcus sp.; 5×10^5 CFU/mL): >64 µg/mL
MIC Staphylococcus aureus (GC 4541) (Staphylococcus sp.; 5×10^5 CFU/mL): >64 µg/mL
MIC Staphylococcus aureus (GC 4542) (Staphylococcus sp.; 5×10^5 CFU/mL): >64 µg/mL
MIC Staphylococcus aureus (GC 4544) (Staphylococcus sp.; 5×10^5 CFU/mL): >64 µg/mL
MIC Staphylococcus aureus (GC 4545) (Staphylococcus sp.; 5×10^5 CFU/mL): >64 µg/mL
MIC Staphylococcus aureus (ATCC 29213) (Staphylococcus sp.; strain ATCC 29213): >64 µg/mL
MIC Staphylococcus aureus (GC 1131) (Staphylococcus sp.; strain GC 1131): >64 µg/mL
MIC Staphylococcus aureus (GC 3051) (Staphylococcus sp.; strain GC 3051): >64 µg/mL
MIC Staphylococcus aureus (GC 3053) (Staphylococcus sp.; strain GC 3053): >64 µg/mL
MIC Staphylococcus aureus (GC 4541) (Staphylococcus sp.; strain GC 4541): >64 µg/mL
MIC Staphylococcus aureus (GC 4542) (Staphylococcus sp.; strain GC 4542): >64 µg/mL
MIC Staphylococcus aureus-SMITH (GC 4543) (Staphylococcus sp.; strain GC 4543): >64 µg/mL
MIC Staphylococcus aureus (GC 4544) (Staphylococcus sp.; strain GC 4544): >64 µg/mL
MIC Staphylococcus aureus (GC 4545) (Staphylococcus sp.; strain GC 4545): >64 µg/mL
MIC Coagulase Negative Staphylococcus (GC 4547) (Staphylococcus sp.; strain GC 4547): >64 µg/mL
MIC Coagulase Negative Staphylococcus (GC 4548) (Staphylococcus sp.; strain GC 4548): >64 µg/mL
MIC Coagulase Negative Staphylococcus (GC 4549) (Staphylococcus sp.; strain GC 4549): >64 µg/mL
MIC Coagulase Negative Staphylococcus (GC 4551) (Staphylococcus sp.; strain GC 4551): >64 µg/mL
MIC Coagulase Negative Staphylococcus (GC 6257) (Staphylococcus sp.; strain GC 6257): >64 µg/mL
MIC Enterococcus avium (GC 4558) (Enterococcus sp.; [1]): >64 µg/mL
MIC Enterococcus faecalis (ATCC 29212) (Enterococcus sp.; [1]): >64 µg/mL
MIC Enterococcus faecalis (GC 2242) (Enterococcus sp.; [1]): >64 µg/mL
MIC Enterococcus faecalis (GC 2691) (Enterococcus sp.; [1]): >64 µg/mL
MIC Enterococcus faecalis (GC 3059) (Enterococcus sp.; [1]): >64 µg/mL
MIC Enterococcus faecalis (GC 4552) (Enterococcus sp.; [1]): >64 µg/mL
MIC Enterococcus faecalis (GC 4553) (Enterococcus sp.; [1]): >64 µg/mL
MIC Enterococcus faecalis (GC 4554) (Enterococcus sp.; [1]): >64 µg/mL
MIC Enterococcus faecalis (GC 6189) (Enterococcus sp.; [1]): >64 µg/mL
MIC Enterococcus faecium (GC 2243) (Enterococcus sp.; [1]): >64 µg/mL
MIC Enterococcus faecium (GC 4556) (Enterococcus sp.; [1]): >64 µg/mL
MIC Enterococcus faecium (GC 4557) (Enterococcus sp.; [1]): >64 µg/mL
MIC Enterococcus faecalis (ATCC 29212) (Enterococcus sp.; strain ATCC 29212): >64 µg/mL
MIC Enterococcus faecalis (GC 2242) (Enterococcus sp.; strain GC 2242): >64 µg/mL
MIC Enterococcus faecium (GC 2243) (Enterococcus sp.; strain GC 2243): >64 µg/mL
MIC Enterococcus faecalis (GC 2691) (Enterococcus sp.; strain GC 2691): >64 µg/mL
MIC Enterococcus faecalis (GC 3059) (Enterococcus sp.; strain GC 3059): >64 µg/mL
MIC Enterococcus faecalis (GC 4552) (Enterococcus sp.; strain GC 4552): >64 µg/mL
MIC Enterococcus faecalis (GC 4553) (Enterococcus sp.; strain GC 4553): >64 µg/mL
MIC Enterococcus faecalis (GC 4554) (Enterococcus sp.; strain GC 4554): >64 µg/mL
MIC Enterococcus faecium (GC 4556) (Enterococcus sp.; strain GC 4556): >64 µg/mL
MIC Enterococcus faecium (GC 4557) (Enterococcus sp.; strain GC 4557): >64 µg/mL
MIC Enterococcus avium (GC 4558) (Enterococcus sp.; strain GC 4558): >64 µg/mL
MIC Enterococcus faecalis (GC 6189) (Enterococcus sp.; strain GC 6189): >64 µg/mL
SMILES: CC(c1ccccc1)C1NC(=O)CNC(=O)C(CO)NC(=O)C(C(O)C2CNC(=N)N2C2OC(CO)C(O)C(O)C2O)NC(=O)C(C(O)C2CNC(=N)N2)NC(=O)C(Cc2ccc(OC3OC(CO)C(OC4OC5COC(c6cccc(OCc7ccc([N+](=O)[O-])cc7)c6)OC5C(O)C4O)C(O)C3O)cc2)NC1=O (stereo not drawn) [Example 182, Cyclo[glycyl-β-methylphenylalanyl-O-[4-O-[4,6-O-(3-[[(4-nitrophenyl)methoxy]benzylidene]hexopyranosyl]hexopyranosyl]tyrosyl-3-(2-iminoimidazolidin-4-yl)seryl-3-β-hexopyranosyl-2-iminoimidazolidin-4-yl)serylseryl]]
MIC Staphylococcus haemolyticus (GC 4546) (Staphylococcus sp.; strain GC 4546): >64 µg/mL
